Results as given in US10864252B2, “Anti-SSX-2 T cell receptors and related materials and methods of use” (The United States of America, as represented by the …, priority 2010, dated 2020).

Tested on: mel1300 cells
Assay: IFN-γ release, SSX-2 TCR PBL co-cultured with mel1300 cells with DAC
Type: cell-based
Details: 0.1 μM or 1.0 μWI DAC; PBLs from three donors; FIG. 12
Description: SSX-2 TCR-transduced PBLs from three donors were co-cultured with mel1300 cells without DAC or with 0.1 μM or 1.0 μWI DAC.

Q: Which “effect on recognition of mel1300 cells (IFN-γ)” value does the source give for `Nc1ncn([C@H]2C[C@H](O)[C@@H](CO)O2)c(=O)n1` [DAC, 5-aza-2′-deoxycytidine] here?
A: Its value is “enhances the recognition of mel1300 cells by SSX2-TCR engineered PBL”.
